Laboratory results from PubChem BioAssay (NCI).
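Assay format: 96-well plates, 48-hour exposure. Abbreviation: GI50, concentration required for 50% inhibition of growth. Definition used: TGI = concentration required for complete inhibition of growth.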

Columns and labels:
Experiment in all cases: inhibition of tumour cell growth, NCI panel, 48 h
UO-31 renal = system: UO-31 renal
MDA-MB-231 breast = system: MDA-MB-231 breast
786-0 renal = system: 786-0 renal
K-562 leukemia = system: K-562 leukemia
OVCAR-5 ovarian = system: OVCAR-5 ovarian
MDA-MB-435 = system: MDA-MB-435
OVCAR-3 ovarian = system: OVCAR-3 ovarian
SNB-75 CNS = system: SNB-75 CNS
PC-3 prostate = system: PC-3 prostate
M14 melanoma = system: M14 melanoma
SW-620 colon = system: SW-620 colon
SF-295 CNS = system: SF-295 CNS
DU-145 prostate = system: DU-145 prostate
SN12C renal = system: SN12C renal
OVCAR-8 ovarian = system: OVCAR-8 ovarian
NCI-H23 lung = system: NCI-H23 lung
A498 renal = system: A498 renal
COLO 205 colon = system: COLO 205 colon
UACC-62 melanoma = system: UACC-62 melanoma
UACC-257 melanoma = system: UACC-257 melanoma
HCT-15 colon = system: HCT-15 colon
BT-549 breast = system: BT-549 breast
HL-60(TB) leukemia = system: HL-60(TB) leukemia
OVCAR-4 ovarian = system: OVCAR-4 ovarian
SK-MEL-28 melanoma = system: SK-MEL-28 melanoma
RXF 393 renal = system: RXF 393 renal
NCI-H460 lung = system: NCI-H460 lung
SR leukemia = system: SR leukemia
A549 NSCLC = system: A549 NSCLC
U251 CNS = system: U251 CNS
LOX IMVI melanoma = system: LOX IMVI melanoma
HT29 colon = system: HT29 colon
NCI-H226 lung = system: NCI-H226 lung
TK-10 renal = system: TK-10 renal
SF-268 CNS = system: SF-268 CNS
MALME-3M melanoma = system: MALME-3M melanoma
MOLT-4 leukemia = system: MOLT-4 leukemia
CCRF-CEM leukemia = system: CCRF-CEM leukemia
MCF7 breast = system: MCF7 breast
HOP-62 NSCLC = system: HOP-62 NSCLC
NCI/ADR-RES ovarian = system: NCI/ADR-RES ovarian
SK-MEL-2 melanoma = system: SK-MEL-2 melanoma
HCT-116 colon = system: HCT-116 colon
NCI-H522 lung = system: NCI-H522 lung
ACHN renal = system: ACHN renal
SK-OV-3 ovarian = system: SK-OV-3 ovarian
KM12 colon = system: KM12 colon
HCC-2998 colon = system: HCC-2998 colon
T-47D breast = system: T-47D breast
EKVX NSCLC = system: EKVX NSCLC
HOP-92 NSCLC = system: HOP-92 NSCLC
SK-MEL-5 melanoma = system: SK-MEL-5 melanoma
SF-539 CNS = system: SF-539 CNS
RPMI-8226 leukemia = system: RPMI-8226 leukemia
HS 578T breast = system: HS 578T breast
SNB-19 CNS = system: SNB-19 CNS

Structure (SMILES): COc1ccc(/C=C/C(=O)c2ccc(NC(=O)CSc3nnc(-c4ccc(OC)c(OC)c4)n3-c3ccccc3)cc2)cc1
- GI50 (UO-31 renal): 1.48 µM
- TGI (UO-31 renal): 3.84 µM
- GI50 (MDA-MB-231 breast): 1.73 µM
- TGI (MDA-MB-231 breast): 3.65 µM
- GI50 (786-0 renal): 1.78 µM
- TGI (786-0 renal): 3.66 µM
- GI50 (K-562 leukemia): 3.02 µM
- TGI (K-562 leukemia): 10.8 µM
- GI50 (OVCAR-5 ovarian): 14 µM
- TGI (OVCAR-5 ovarian): 28.3 µM
- GI50 (MDA-MB-435): 1.91 µM
- TGI (MDA-MB-435): 4.13 µM
- GI50 (OVCAR-3 ovarian): 1.72 µM
- TGI (OVCAR-3 ovarian): 3.26 µM
- GI50 (SNB-75 CNS): 2.6 µM
- TGI (SNB-75 CNS): 14.9 µM
- GI50 (PC-3 prostate): 3.09 µM
- TGI (PC-3 prostate): 13.8 µM
- GI50 (M14 melanoma): 1.8 µM
- TGI (M14 melanoma): 3.9 µM
- GI50 (SW-620 colon): 1.96 µM
- TGI (SW-620 colon): 4.07 µM
- GI50 (SF-295 CNS): 12.2 µM
- TGI (SF-295 CNS): 25.9 µM
- GI50 (DU-145 prostate): 3.21 µM
- TGI (DU-145 prostate): 10.8 µM
- GI50 (SN12C renal): 2.25 µM
- TGI (SN12C renal): 7.09 µM
- GI50 (OVCAR-8 ovarian): 3.09 µM
- TGI (OVCAR-8 ovarian): 14.1 µM
- GI50 (NCI-H23 lung): 1.8 µM
- TGI (NCI-H23 lung): 4.01 µM
- GI50 (A498 renal): 14.7 µM
- TGI (A498 renal): 28 µM
- GI50 (COLO 205 colon): 2.1 µM
- TGI (COLO 205 colon): 4.56 µM
- GI50 (UACC-62 melanoma): 2.26 µM
- TGI (UACC-62 melanoma): 6.59 µM
- GI50 (UACC-257 melanoma): 12 µM
- TGI (UACC-257 melanoma): 24.4 µM
- GI50 (HCT-15 colon): 1.8 µM
- TGI (HCT-15 colon): 4.27 µM
- GI50 (BT-549 breast): 1.6 µM
- TGI (BT-549 breast): 3.49 µM
- GI50 (HL-60(TB) leukemia): 2.57 µM
- TGI (HL-60(TB) leukemia): 11.8 µM
- GI50 (OVCAR-4 ovarian): 1.96 µM
- TGI (OVCAR-4 ovarian): 4.75 µM
- GI50 (SK-MEL-28 melanoma): 5.78 µM
- TGI (SK-MEL-28 melanoma): 19.2 µM
- GI50 (RXF 393 renal): 1.66 µM
- TGI (RXF 393 renal): 3.35 µM
- GI50 (NCI-H460 lung): 5.05 µM
- TGI (NCI-H460 lung): 18 µM
- GI50 (SR leukemia): 0.724 µM
- TGI (SR leukemia): 2.78 µM
- GI50 (A549 NSCLC): 14.9 µM
- TGI (A549 NSCLC): 31.7 µM
- GI50 (U251 CNS): 1.75 µM
- TGI (U251 CNS): 3.51 µM
- GI50 (LOX IMVI melanoma): 1.46 µM
- TGI (LOX IMVI melanoma): 2.99 µM
- GI50 (HT29 colon): 1.86 µM
- TGI (HT29 colon): 3.58 µM
- GI50 (NCI-H226 lung): 3.92 µM
- TGI (NCI-H226 lung): 24.3 µM
- GI50 (TK-10 renal): 14.6 µM
- TGI (TK-10 renal): 28.1 µM
- GI50 (SF-268 CNS): 1.89 µM
- TGI (SF-268 CNS): 4.88 µM
- GI50 (MALME-3M melanoma): 1.75 µM
- TGI (MALME-3M melanoma): 3.49 µM
- GI50 (MOLT-4 leukemia): 2.26 µM
- TGI (MOLT-4 leukemia): 9.14 µM
- GI50 (CCRF-CEM leukemia): 1.85 µM
- TGI (CCRF-CEM leukemia): 5.36 µM
- GI50 (MCF7 breast): 1.41 µM
- TGI (MCF7 breast): 5.14 µM
- GI50 (HOP-62 NSCLC): 4.36 µM
- TGI (HOP-62 NSCLC): 19.4 µM
- GI50 (NCI/ADR-RES ovarian): 2.66 µM
- TGI (NCI/ADR-RES ovarian): > 100 µM
- GI50 (SK-MEL-2 melanoma): 5.03 µM
- TGI (SK-MEL-2 melanoma): 23.3 µM
- GI50 (HCT-116 colon): 1.17 µM
- TGI (HCT-116 colon): 2.66 µM
- GI50 (NCI-H522 lung): 1.48 µM
- TGI (NCI-H522 lung): 3.17 µM
- GI50 (ACHN renal): 2.38 µM
- TGI (ACHN renal): 6.1 µM
- GI50 (SK-OV-3 ovarian): 13.1 µM
- TGI (SK-OV-3 ovarian): 26.3 µM
- GI50 (KM12 colon): 2.24 µM
- TGI (KM12 colon): 5.54 µM
- GI50 (HCC-2998 colon): 2.97 µM
- TGI (HCC-2998 colon): 10.1 µM
- GI50 (T-47D breast): 2.54 µM
- TGI (T-47D breast): 12.4 µM
- GI50 (EKVX NSCLC): 3.05 µM
- TGI (EKVX NSCLC): 14.6 µM
- GI50 (HOP-92 NSCLC): 1.56 µM
- TGI (HOP-92 NSCLC): 3.45 µM
- GI50 (SK-MEL-5 melanoma): 1.81 µM
- TGI (SK-MEL-5 melanoma): 4.12 µM
- GI50 (SF-539 CNS): 1.8 µM
- TGI (SF-539 CNS): 3.31 µM
- GI50 (RPMI-8226 leukemia): 1.72 µM
- TGI (RPMI-8226 leukemia): 4.41 µM
- GI50 (HS 578T breast): 7.68 µM
- TGI (HS 578T breast): 54.3 µM
- GI50 (SNB-19 CNS): 3.5 µM
- TGI (SNB-19 CNS): 16.9 µM
